According to PubChem BioAssay (NCI):
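How tested: cells in 96-well plates exposed to compound for 48 hours at five concentrations. At the GI50, growth is halved. At the TGI there is no net growth.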

Experiments:
Test in all cases: NCI tumour cell line growth inhibition, 48 h
[1] = system: SK-MEL-28 melanoma
[2] = system: HCT-15 colon
[3] = system: SK-MEL-5 melanoma
[4] = system: NCI-H226 lung
[5] = system: T-47D breast
[6] = system: NCI-H23 lung
[7] = system: SF-295 CNS
[8] = system: HT29 colon
[9] = system: HL-60(TB) leukemia
[10] = system: MOLT-4 leukemia

Compound: CO[C@@]12C[C@@H](CNC(=O)c3cc(Br)c[nH]3)O[C@@H]1NC(=O)N2
- TGI [1]: > 100 µM
- TGI [2]: > 100 µM
- TGI [3]: > 100 µM
- TGI [4]: > 100 µM
- TGI [5]: > 100 µM
- TGI [6]: > 100 µM
- TGI [7]: > 100 µM
- TGI [8]: > 100 µM

Compound: COc1ccc(/C=c2/[nH]c(=O)/c(=C\c3ccc(OCc4ccccc4)cn3)[nH]c2=O)cc1
- TGI [1]: > 100 µM
- TGI [2]: > 100 µM
- TGI [9]: > 100 µM
- TGI [3]: > 100 µM
- TGI [4]: > 100 µM
- TGI [5]: > 100 µM
- TGI [6]: > 100 µM
- TGI [7]: > 100 µM
- TGI [10]: > 100 µM
- TGI [8]: > 100 µM

Compound: CN(C)CCNc1c([N+](=O)[O-])cc2c3c(cccc13)C(=O)N(CCN(C)C)C2=O
- TGI [1]: 12.9 µM
- TGI [2]: 5.54 µM
- TGI [9]: 5.53 µM
- TGI [3]: 4.32 µM
- TGI [4]: > 100 µM
- TGI [6]: 3.89 µM
- TGI [7]: 6.69 µM
- TGI [10]: 3.09 µM
- TGI [8]: 5.03 µM

Compound: O=C(O)C(Cc1ccccc1)N1C(=O)c2ccccc2C1=O (centres undefined)
- TGI [1]: 30.4 µM
- TGI [2]: > 100 µM
- TGI [9]: 10.8 µM
- TGI [3]: > 100 µM
- TGI [4]: > 100 µM
- TGI [5]: > 100 µM
- TGI [6]: > 100 µM
- TGI [7]: > 100 µM
- TGI [10]: > 100 µM
- TGI [8]: > 100 µM

Compound: CC(=O)OCCC[C@@H]1C(=C(C)C)CCC2[C@@]1(C)CC[C@@]1(C)C[C@](C)(CCC=C(C)C)CC[C@]21C (some centres undefined)
- TGI [1]: > 100 µM
- TGI [2]: > 100 µM
- TGI [9]: > 100 µM
- TGI [3]: > 100 µM
- TGI [4]: > 100 µM
- TGI [5]: > 100 µM
- TGI [6]: > 100 µM
- TGI [7]: > 100 µM
- TGI [10]: > 100 µM
- TGI [8]: > 100 µM

Compound: CCN(CC)/C(=C\Cl)Nc1ccccn1
- TGI [1]: > 100 µM
- TGI [2]: > 100 µM
- TGI [9]: > 100 µM
- TGI [3]: > 100 µM
- TGI [4]: > 100 µM
- TGI [6]: > 100 µM
- TGI [7]: > 100 µM
- TGI [10]: > 100 µM
- TGI [8]: > 100 µM

Compound: OC1C=C2C3CN(Cc4cc5c(cc43)OCO5)[C@H]2C[C@@H]1O (some centres undefined)
- TGI [1]: > 100 µM
- TGI [2]: 34.1 µM
- TGI [9]: 19.3 µM
- TGI [3]: 16.4 µM
- TGI [4]: > 100 µM
- TGI [5]: 6.54 µM
- TGI [6]: 67.4 µM
- TGI [7]: > 100 µM
- TGI [10]: > 100 µM
- TGI [8]: 46.3 µM

Compound: O=C1CC(N2C(=O)/C(=C/C(Cl)=C\c3ccc([N+](=O)[O-])cc3)SC2=S)C(=O)N1c1ccc(Cl)cc1 (centres undefined)
- GI50 [1]: 1.71 µM
- TGI [1]: 4.02 µM
- GI50 [2]: 0.599 µM
- TGI [2]: 8.2 µM
- GI50 [9]: 1.45 µM
- TGI [9]: 8.86 µM
- GI50 [4]: 1.92 µM
- TGI [4]: 4.65 µM
- GI50 [5]: 2.03 µM
- TGI [5]: 6.34 µM
- GI50 [6]: 1.64 µM
- TGI [6]: 4.31 µM
- GI50 [7]: 1.4 µM
- TGI [7]: 3.24 µM
- GI50 [10]: 0.596 µM
- TGI [10]: 13.4 µM
- GI50 [8]: 0.632 µM
- TGI [8]: 4.6 µM

Compound: O=C1CCC(NC(=O)Cc2ccc(O)cc2)C(=O)N1 (centres undefined)
- TGI [1]: > 2500 µM
- TGI [2]: > 2500 µM
- TGI [3]: > 2500 µM
- TGI [4]: > 2500 µM
- TGI [6]: > 2500 µM
- TGI [7]: > 2500 µM
- TGI [8]: > 2500 µM

Compound: O=C(NN1C(=O)/C(=C/c2ccc(Cl)cc2)N=C1c1ccccc1)c1c(Cl)c(Cl)c(Cl)c(Cl)c1-c1nc2ccccc2[nH]1
- TGI [1]: > 100 µM
- TGI [2]: 28.3 µM
- TGI [9]: 50.5 µM
- TGI [3]: > 100 µM
- TGI [4]: 68.2 µM
- TGI [5]: 9.72 µM
- TGI [6]: 34.9 µM
- TGI [7]: > 100 µM
- TGI [10]: > 100 µM
- TGI [8]: > 100 µM

Compound: CC(=O)C1(c2ccccc2)CCCN(C)CC1 (centres undefined)
- TGI [1]: > 100 µM
- TGI [2]: > 100 µM
- TGI [3]: > 100 µM
- TGI [4]: > 100 µM
- TGI [5]: > 100 µM
- TGI [6]: > 100 µM
- TGI [7]: > 100 µM
- TGI [10]: > 100 µM
- TGI [8]: > 100 µM

Compound: COc1ccc(OC)c2sc(N3C(=O)/C(=C/c4ccccc4S)N=C3c3ccccc3)nc12
- TGI [1]: > 100 µM
- TGI [2]: > 100 µM
- TGI [9]: 79.3 µM
- TGI [3]: 40.6 µM
- TGI [5]: > 100 µM
- TGI [7]: > 100 µM
- TGI [10]: 35 µM
- TGI [8]: > 100 µM

Compound: O=C1CC(n2cccc2)c2cc(Br)sc21 (centres undefined)
- TGI [1]: > 100 µM
- TGI [2]: > 100 µM
- TGI [9]: > 100 µM
- TGI [3]: > 100 µM
- TGI [4]: > 100 µM
- TGI [5]: > 100 µM
- TGI [6]: > 100 µM
- TGI [7]: > 100 µM
- TGI [10]: 87 µM
- TGI [8]: > 100 µM

Compound: CC(=O)C1=C(O)C2(O)C(=O)c3c(c(C)c4ccc(C)c(O)c4c3O)CC2C(N)C1=O (centres undefined)
- TGI [1]: 13.3 µM
- TGI [2]: 9.99 µM
- TGI [9]: 5.07 µM
- TGI [3]: 3.85 µM
- TGI [4]: 8.2 µM
- GI50 [5]: 2.33 µM
- TGI [5]: 30.5 µM
- TGI [6]: 7.14 µM
- TGI [7]: 5.6 µM
- TGI [10]: 8.86 µM
- TGI [8]: 12.3 µM

Compound: Cc1nc(Cl)c(C)c(Cl)n1
- TGI [1]: > 100 µM
- TGI [2]: > 100 µM
- TGI [9]: > 68.4 µM
- TGI [3]: > 100 µM
- TGI [4]: > 100 µM
- TGI [5]: > 100 µM
- TGI [6]: > 100 µM
- TGI [7]: > 100 µM
- TGI [10]: > 100 µM
- TGI [8]: > 100 µM
